Measurements from patent US10519177B2, “Heterocyclic compounds and uses thereof” (Plexxikon Inc., priority 2013, dated 2019).

molecular target: BRD4-BD1 (44-164) (Homo sapiens (Human), UniProt O60885); assay: Alphascreen binding assay BRD4-BD1; conditions: BRD4(1) H4; read-out: Biochemical activity (IC50 μM) BRD4(1) H4
Procedure: Binding of compounds of formula (I) with bromodomain 2, 3 4 was assessed using Alphascreen binding assay. The inhibition of the interaction between bromodomain and its acetylated target protein (Filippakopoulos P et al. 2012) was measured quantitatively using recombinant BRD proteins, an acetylated Histone 4 peptide and AlphaScreen™ technology. In absence of inhibition the BRD protein bound to AlphaScreen™ nickel chelate acceptor beads can interact with the acetylated Histone 4 peptide which is immobilized by the AlphaScreen™ Streptavidin coated beads. This interaction brings donor and acceptor beads in proximity. The close proximity allows the singlet oxygen produced by laser excitation of the donor beads to reach the acceptor beads and generate a luminescence signal.
Recombinant human bromodomains containing the N-terminal bromodomain (BRD2-BD1 (71-194), BRD3-BD1 (24-144) and BRD4-BD1 (44-164)) or dual bromodomains (BRD4-BD12 (1-477), BRD4-BD12 (1-472)) were prepared and purified as described in protein expression and purification session. The peptide is human Histone H41-21K5AcK8AcK12AcK16Ac-Biotin (Anaspec CA, USA).
Protocol for BRD2, BRD3 and BRD4 assay: All components are prepared in buffer composed of 50 mM HEPES pH 7.5, 100 mM NaCl, 0.01% bovine serum albumin (“BSA”), 0.01% Triton X-100, 2 mM dithiothreitol (“DTT”). 7 μL of Bromodomain protein and 7 μL of peptide are added to wells containing 1 μL of various concentrations of test compounds of formula (I) or DMSO vehicle in an Alphaplate (PerkinElmer GA, USA) and incubated for 1 hour at room temperature. 4 μL donor and acceptor bead mixture is then added with final concentrations of 7.5 μg/ml. 30 minutes after bead addition, Alpha signal is read on the Envision spectrometer (λEx 680 nm, λEm 520-620 nm). Final concentrations of bromodomain proteins and peptide are as shown below.
All data was normalized to the mean of 16 high and 16 low control wells on each plate. A four parameter curve fit of the following formula was then applied: Y=a+(b−a)/(1+(x/c)^d) Where ‘a’ is the minimum, ‘b’ is the maximum, ‘c’ is the pIC50 and ‘d’ is the Hill slope. Protein Expression and Purification
Recombinant human bromodomains containing the N-terminal bromodomain (BRD2-BD1 (71-194), BRD3-BD1 (24-144) and BRD4-BD1 (44-164)) or dual bromodomains (BRD4-BD12 (1-477), BRD4-BD12 (1-472)) were expressed in E. coli cells (in a modified pET vector) with an N-terminal six-His tag and purified using a combination of both IMAC (Ni-affinity) and size exclusion chromatography steps.
Recombinant BRD proteins were expressed using the E. coli strain BL21-CodonPlus (DE3) (Agilent Technologies CA, USA). Cells were grown in Terrific Broth (TB) media to an OD600 of 1.2 at 37° C. at which temperature was reduced to 25° C., protein was induced with 1.0 mM ispropyl-β-D-thiogalactopyranoside (“IPTG”) for 12-18 hours and harvested by centrifugation at 8000×g for 20 minutes. Cells were re-suspended in 0.1M K2PO4 pH 8.0, 250 mM NaCl, 10% Glycerol, 0.75% NP-40, 25 mM Imidazole, 5 mM beta-mercaptoethanol (“BME”) with 0.2 mg/ml Lysosyme, 2.0 mM phenylmethanesulfonyl fluoride (“PMSF”), 25 μg/ml DNAse I, incubated on ice for 30 minutes and lyzed with a cell disruptor (MicroFluidics MA, USA). The lysate was clarified by centrifugation at 20,000×g for 2 hours. The protein was captured with Ni-NTA resin (Life Technologies, USA). Contaminating proteins were washed off with 25 mM Tris-HCl pH 8.3, 250 mM NaCl, 12% Glycerol and 50 mM Imidazole. Following 3× wash steps, protein was eluted step wise using a 50 mM HEPES pH 7.5, 500 mM NaCl and 400 mM Imidazole. The protein was further purified using Gel Filtration column 26/600 Superdex 200 (GE Biosciences NJ, USA) in 50 mM HEPES pH 7.5, 250 mM NaCl. The protein was aliquoted and flash-frozen in liquid Nitrogen.

Structure (SMILES) | IC50
Cc1noc(C)c1-c1cnc2ccn(Cc3ccccc3)c2c1 [P-0162, 4-(1-benzylpyrrolo[3,2-b]pyridin-6-yl)-3,5-dimethyl-isoxazole] | < 1 µM
Cc1noc(C)c1-c1cnc2ccn(S(=O)(=O)c3ccccc3F)c2c1 [P-0060, 4-[1-(2-fluorophenyl)sulfonylpyrrolo[3,2-b]pyridin-6-yl]-3,5-dimethyl-isoxazole] | < 1 µM
Cc1noc(C)c1-c1cnc2c(-c3cnn(C)c3)cn(S(=O)(=O)C3CCCC3)c2c1 [P-0112, 4-[1-cyclopentyl-sulfonyl-3-(1-methyl-pyrazol-4-yl)pyrrolo[3,2-b]pyridin-6-yl]-3,5-dimethyl-isoxazole] | < 1 µM
Cc1noc(C)c1-c1cnc2[nH]cc(C(O)c3cccc4c3OC(F)(F)O4)c2c1 (stereo not drawn) [P-0041, (2,2-difluoro-1,3-benzodioxol-4-yl)-[5-(3,5-dimethylisoxazol-4-yl)-1H-pyrrolo[2,3-b]pyridin-3-yl]methanol] | < 1 µM
Cc1nc(Cn2cc(-c3cnn(C)c3)c3ncc(-c4c(C)noc4C)cc32)cs1 [P-0170, 3,5-dimethyl-4-[3-(1-methylpyrazol-4-yl)-1-[(2-methylthiazol-4-yl)methyl]pyrrolo[3,2-b]pyridin-6-yl]isoxazole] | < 1 µM
Cc1noc(C)c1-c1cnc2c(-c3cnn(C)c3)cn(CC3CC(F)(F)C3)c2c1 [P-0213, 4-[1-[(3,3-difluorocyclobutyl)methyl]-3-(1-methylpyrazol-4-yl)pyrrolo[3,2-b]pyridin-6-yl]-3,5-dimethyl-isoxazole] | < 1 µM
Cc1noc(C)c1-c1cnc2c(-c3cnn(C(F)F)c3)cn(S(=O)(=O)c3ccccc3)c2c1 [P-0131, 4-[1-(benzenesulfonyl)-3-[1-(difluoromethyl)pyrazol-4-yl]pyrrolo[3,2-b]pyridin-6-yl]-3,5-dimethyl-isoxazole] | < 1 µM
Cc1noc(C)c1-c1cnc2ccn(S(=O)(=O)C3CCCC3)c2c1 [P-0037, 4-(1-cyclopentyl-sulfonylpyrrolo[3,2-b]pyridin-6-yl)-3,5-dimethyl-isoxazole] | < 1 µM
COC(c1c[nH]c2ncc(-c3c(C)noc3C)cc12)C1CCC(F)(F)CC1 (stereo not drawn) [P-0073, 4-[3-[(4,4-difluorocyclohexyl)-methoxy-methyl]-1H-pyrrolo[2,3-b]pyridin-5-yl]-3,5-dimethyl-isoxazole] | < 1 µM
Cc1noc(C)c1-c1cnc2c(c1)c(S(=O)(=O)c1ccccc1)cn2-c1cnn(C)c1 [P-0185, 4-[3-(benzenesulfonyl)-1-(1-methylpyrazol-4-yl)pyrrolo[2,3-b]pyridin-5-yl]-3,5-dimethyl-isoxazole] | < 1 µM
Cc1noc(C)c1-c1cnc2c(-c3cnn(C4CCOC4)c3)cn(C(C)c3ccccc3)c2c1 (stereo not drawn) [P-0204, 3,5-dimethyl-4-[1-(1-phenyl-ethyl)-3-(1-tetrahydrofuran-3-ylpyrazol-4-yl)pyrrolo[3,2-b]pyridin-6-yl]isoxazole] | < 1 µM
Cc1noc(C)c1-c1cnc2c(-c3cnn(C4CCCCO4)c3)cn(S(=O)(=O)c3ccccc3)c2c1 (stereo not drawn) [P-0168, 4-[1-(benzenesulfonyl)-3-(1-tetrahydropyran-2-ylpyrazol-4-yl)pyrrolo[3,2-b]pyridin-6-yl]-3,5-dimethyl-isoxazole] | < 1 µM
Cc1noc(C)c1-c1cnc2c(-c3cnn(C)c3)cn(CC3CCC(F)(F)CC3)c2c1 [P-0209, 4-[1-[(4,4-difluorocyclohexyl)methyl]-3-(1-methylpyrazol-4-yl)pyrrolo[3,2-b]pyridin-6-yl]-3,5-dimethyl-isoxazole] | < 1 µM
CCOC(=O)C(c1ccccc1)n1cc(-c2cnn(C)c2)c2ncc(-c3c(C)noc3C)cc21 (stereo not drawn) [P-0186, ethyl 2-[6-(3,5-dimethylisoxazol-4-yl)-3-(1-methylpyrazol-4-yl)pyrrolo[3,2-b]pyridin-1-yl]-2-phenyl-acetate] | < 1 µM
Cc1noc(C)c1-c1cnc2c(-c3cnn(C(F)F)c3)cn(Cc3ccccc3F)c2c1 [P-0176, 4-[3-[1-(difluoromethyl)pyrazol-4-yl]-1-[(2-fluorophenyl)methyl]pyrrolo[3,2-b]pyridin-6-yl]-3,5-dimethyl-isoxazole] | < 1 µM
C=CCn1cc(-c2cn(Cc3ccccc3)c3cc(-c4c(C)noc4C)cnc23)cn1 [P-0160, 4-[3-(1-allylpyrazol-4-yl)-1-benzyl-pyrrolo[3,2-b]pyridin-6-yl]-3,5-dimethyl-isoxazole] | < 1 µM
COCCn1cc(-c2cn(S(=O)(=O)C3CCCC3)c3cc(-c4c(C)noc4C)cnc23)cn1 [P-0151, 4-[1-cyclopentyl-sulfonyl-3-[1-(2-methoxyethyl)pyrazol-4-yl]pyrrolo[3,2-b]pyridin-6-yl]-3,5-dimethyl-isoxazole] | < 1 µM
Cc1noc(C)c1-c1cnc2c(-c3cnn(C)c3)cn(C(C)c3ccccc3)c2c1 (stereo not drawn) [P-0161, 3,5-dimethyl-4-[3-(1-methylpyrazol-4-yl)-1-(1-phenylethyl)pyrrolo[3,2-b]pyridin-6-yl]isoxazole] | < 1 µM
CCc1[nH]c2ncc(-c3c(C)noc3C)cc2c1C(O)C1CCC(F)(F)CC1 (stereo not drawn) [P-0044, (4,4-difluorocyclohexyl)-[5-(3,5-dimethylisoxazol-4-yl)-2-ethyl-1H-pyrrolo[2,3-b]pyridin-3-yl]methanol] | < 1 µM
C=CCn1cc(-c2cn(S(=O)(=O)CC3CC3)c3cc(-c4c(C)noc4C)cnc23)cn1 [P-0140, 4-[3-(1-allylpyrazol-4-yl)-1-(cyclopropyl-methylsulfonyl)pyrrolo[3,2-b]pyridin-6-yl]-3,5-dimethyl-isoxazole] | < 1 µM
CCc1[nH]c2ncc(-c3c(C)noc3C)cc2c1C(O)c1ccccc1Cl (stereo not drawn) [P-0042, (2-chlorophenyl)-[5-(3,5-dimethylisoxazol-4-yl)-2-ethyl-1H-pyrrolo[2,3-b]pyridin-3-yl]methanol] | < 1 µM
Cc1noc(C)c1-c1cnc2c(-c3cnn(C(F)F)c3)cn(CC3CCC(F)(F)CC3)c2c1 [P-0210, 4-[1-[(4,4-difluorocyclohexyl)methyl]-3-[1-(difluoromethyl)pyrazol-4-yl]pyrrolo[3,2-b]pyridin-6-yl]-3,5-dimethyl-isoxazole] | < 1 µM
Cc1noc(C)c1-c1cnc2ccn(C(CC#N)C3CCCC3)c2c1 (stereo not drawn) [P-0196, 3-cyclopentyl-3-[6-(3,5-dimethylisoxazol-4-yl)pyrrolo[3,2-b]pyridin-1-yl]propanenitrile] | < 1 µM
Cc1noc(C)c1-c1cnc2c(-c3cnn(C)c3)cn(Cc3cccnc3)c2c1 [P-0195, 3,5-dimethyl-4-[3-(1-methylpyrazol-4-yl)-1-(3-pyridylmethyl)pyrrolo[3,2-b]pyridin-6-yl]isoxazole] | < 1 µM
COC(c1c[nH]c2ncc(-c3c(C)noc3C)cc12)C1CCS(=O)(=O)CC1 (stereo not drawn) [P-0089, 4-[[5-(3,5-dimethylisoxazol-4-yl)-1H-pyrrolo[2,3-b]pyridin-3-yl]-methoxy-methyl]thiane 1,1-dioxide] | < 1 µM
Cc1noc(C)c1-c1cnc2c(-c3cnn(C)c3)cn(Cc3ccccc3Cl)c2c1 [P-0193, 4-[1-[(2-chlorophenyl)methyl]-3-(1-methylpyrazol-4-yl)pyrrolo[3,2-b]pyridin-6-yl]-3,5-dimethyl-isoxazole] | < 1 µM
Cc1noc(C)c1-c1cnc2[nH]cc(C(C)(C)c3ccc(F)cc3)c2c1 [P-0063, 4-[3-[1-(4-fluorophenyl)-1-methyl-ethyl]-1H-pyrrolo[2,3-b]pyridin-5-yl]-3,5-dimethyl-isoxazole] | < 1 µM
